Test results: the NIST ThermoML archive (doi:10.1021/je201334p)

How the values were obtained:
[1] = xn = mol fraction of the nth substance listed; details: 101 kPa, Liquid; for speed of sound: Sing-around technique in a fixed-path interferometer; for mass density: Vibrating tube method
[2] = refractive index (Na D-line) (dimensionless); xn = mol fraction of the nth substance listed; details: 101 kPa, Liquid, Standard Abbe refractometry

CCCC[N+]1(C)CCCC1.O=S(=O)([O-])C(F)(F)F [1-butyl-1-methylpyrrolidinium trifluoromethanesulfonate] + O
Details | mass density, 288.15 K [kg/m3] | mass density, 298.15 K [kg/m3] | mass density, 308.15 K [kg/m3] | refractive index, 288.15 K | refractive index, 298.15 K | refractive index, 308.15 K | speed of sound, 288.15 K [m/s] | speed of sound, 298.15 K [m/s] | speed of sound, 308.15 K [m/s]
[1], x2 = 0 | 1260.33 | 1252.98 | 1245.78 | – | – | – | 1484.6 | 1460.1 | 1436.7
[1], x2 = 0.0559 | 1259.04 | 1251.78 | 1244.55 | – | – | – | 1486.9 | 1462.7 | 1439.7
[1], x2 = 0.1084 | 1257.8 | 1250.57 | 1243.3 | – | – | – | 1489.1 | 1464.9 | 1441.5
[1], x2 = 0.2076 | 1255.12 | 1247.82 | 1240.51 | – | – | – | 1494.5 | 1470.5 | 1447.2
[1], x2 = 0.2997 | 1252.05 | 1244.68 | 1237.3 | – | – | – | 1500.7 | 1476.9 | 1453.6
[1], x2 = 0.408 | 1247.41 | 1239.95 | 1232.47 | – | – | – | 1509.8 | 1486.1 | 1462.8
[1], x2 = 0.5038 | 1241.91 | 1234.36 | 1226.79 | – | – | – | 1520.1 | 1496.5 | 1473.2
[1], x2 = 0.6003 | 1234.21 | 1226.56 | 1218.89 | – | – | – | 1533.3 | 1510 | 1486.7
[1], x2 = 0.7052 | 1221.39 | 1213.67 | 1205.88 | – | – | – | 1552.3 | 1529.6 | 1506.6
[1], x2 = 0.8095 | 1198.77 | 1191.13 | 1183.37 | – | – | – | 1576.2 | 1555.8 | 1534.6
[1], x2 = 0.9018 | 1155.9 | 1148.95 | 1141.73 | – | – | – | 1595.4 | 1582.1 | 1566.6
[1], x2 = 0.9533 | 1104.38 | 1098.73 | 1092.63 | – | – | – | 1592.8 | 1589.4 | 1582.8
[2], x2 = 0 | – | – | – | 1.43557 | 1.43289 | 1.43018 | – | – | –
[2], x2 = 0.0559 | – | – | – | 1.43506 | 1.4324 | 1.4297 | – | – | –
[2], x2 = 0.1084 | – | – | – | 1.43458 | 1.43187 | 1.42918 | – | – | –
[2], x2 = 0.2076 | – | – | – | 1.43345 | 1.43075 | 1.42808 | – | – | –
[2], x2 = 0.2997 | – | – | – | 1.43221 | 1.42951 | 1.42683 | – | – | –
[2], x2 = 0.408 | – | – | – | 1.43031 | 1.42762 | 1.4249 | – | – | –
[2], x2 = 0.5038 | – | – | – | 1.42809 | 1.42536 | 1.42262 | – | – | –
[2], x2 = 0.6003 | – | – | – | 1.42501 | 1.42221 | 1.41943 | – | – | –
[2], x2 = 0.7052 | – | – | – | 1.41987 | 1.41708 | 1.4143 | – | – | –
[2], x2 = 0.8095 | – | – | – | 1.41085 | 1.40814 | 1.40557 | – | – | –
[2], x2 = 0.9018 | – | – | – | 1.39398 | 1.39161 | 1.38937 | – | – | –
[2], x2 = 0.9533 | – | – | – | 1.37399 | 1.3721 | 1.37023 | – | – | –
